Patent US20250312469A1 (CANGET BIOTEKPHARMA, priority 2024, published 2025)

Tests used:
[1] = tested on: Panc-1, BxPC-3 and MiaPaca-2 cells; assay: Cell monolayer wound healing test; format: cell-based, human
Description: Representative cell migration wound healing images were taken at zero hour and wound healing for 48-72 hours.

in vivo = details: female, SCID, mouse; for Tmax / half-life: po
ABCG2/BCRP = target: T1, ABCG2/BCRP (Homo sapiens, UniProt Q9UNQ0); assay: in vitro; details: for recovery at 120 min, 1 µM: Caco-2, pH 7.4, Recovery (%)
T1 sequence (Q9UNQ0 1-655): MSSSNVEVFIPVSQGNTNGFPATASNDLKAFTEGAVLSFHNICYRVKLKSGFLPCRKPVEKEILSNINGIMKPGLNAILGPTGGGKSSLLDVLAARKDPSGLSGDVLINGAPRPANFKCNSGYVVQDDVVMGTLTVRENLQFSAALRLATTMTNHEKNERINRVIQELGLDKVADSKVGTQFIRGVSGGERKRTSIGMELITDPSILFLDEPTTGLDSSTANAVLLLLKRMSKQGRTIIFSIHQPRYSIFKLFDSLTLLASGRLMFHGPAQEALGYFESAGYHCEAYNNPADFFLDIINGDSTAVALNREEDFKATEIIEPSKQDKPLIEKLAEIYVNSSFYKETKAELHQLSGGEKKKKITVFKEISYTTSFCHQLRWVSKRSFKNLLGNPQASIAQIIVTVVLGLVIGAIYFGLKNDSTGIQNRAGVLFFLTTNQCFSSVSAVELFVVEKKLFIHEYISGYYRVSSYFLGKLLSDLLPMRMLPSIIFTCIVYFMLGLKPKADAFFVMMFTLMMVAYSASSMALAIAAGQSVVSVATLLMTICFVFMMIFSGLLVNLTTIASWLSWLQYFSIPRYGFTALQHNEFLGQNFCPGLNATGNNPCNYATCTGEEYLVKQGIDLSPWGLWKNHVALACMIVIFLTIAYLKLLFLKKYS

UbE2T = target: T2, UbE2T (Homo sapiens, UniProt Q9NPD8); assay: ITC, Flag-UbE2T; format: binding; parameters: host or cells: HEK293T
T2 sequence (Q9NPD8 1-197): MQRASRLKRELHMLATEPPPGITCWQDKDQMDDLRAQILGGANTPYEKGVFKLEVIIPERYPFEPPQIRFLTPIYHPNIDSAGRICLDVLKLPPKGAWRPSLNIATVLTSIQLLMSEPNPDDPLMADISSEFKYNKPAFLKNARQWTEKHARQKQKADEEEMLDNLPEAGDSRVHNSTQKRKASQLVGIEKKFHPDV
Text: Purification of Flag-tagged DDX5 (Flag-DDX5), USP2a (Flag-USP2), UbE2T (Flag-(bE2T) and topoisomerase 1 (Top1) (Flag-Top1) proteins: Flag-DDX5, Flag-USP2, Flag-UbE2T and Flag-Topl proteins were purified from the protein expression vector-transfected HEK293T cells by using the FLAG® M Purification Kit for mammalian expression systems (CELLMM2-IKT, Sigma). Briefly, sub-confluent populations of HEK293T cells were transfected with expression vectors for Flag-DDX5, Flag-USP2, Flag-UbE2T and Flag-Top1 (OriGene) using Lipofectamine 2000 (Invitrogen) as per the manufacturer's instructions. After 72h of transfection, cells were lysed in Cell Lytic M lysis reagent (Sigma Cat #C2978) containing a protease inhibitor cocktail. […]
Replacement of the Tris-HCl buffer with the PBS buffer for purified proteins for drug-protein binding analyses using isothermal titration calorimetry (ITC): After the purified proteins were eluted from the agarose resin with 3×flag peptide, the same purified protein samples from different batches were combined. […] The PBS-resuspended protein samples were recovered from the reservoir and the protein concentrations were determined using the nano-drop reader (Bio-Rad) and BCA Protein Assay (Thermo/Pierce) for double-making sure the concentration. […]

CCC1(O)C(=O)OCc2c1cc1n(c2=O)Cc2cc3cc4c(cc3nc2-1)OCO4 (stereo not drawn) [FL118]
cell migration wound healing [1]: exhibited cell migration wound healing defect | Tmax (in vivo; HT29 tumor): 1 h | half-life (in vivo; HT29 tumor): 4.24 h | Tmax (in vivo; SW620 tumor): 1 h | half-life (in vivo; SW620 tumor): 2.99 h | bioavailability (in vivo; plasma, oral): 84.6% | Tmax (in vivo; plasma): 0.5 h | half-life (in vivo; plasma): 5.12 h | Papp A→B at 120 min, 1 μM (ABCG2/BCRP; Caco-2, pH 7.4, Papp AVG, Caco-2, A-to-B, first FL118 entry (without Ko143)): 10.7 ×10⁻⁶ cm/s | Papp A→B at 120 min, 1 μM (ABCG2/BCRP; Caco-2, pH 7.4, Papp R1, Caco-2, A-to-B, first FL118 entry (without Ko143)): 11.2 ×10⁻⁶ cm/s | Papp A→B at 120 min, 1 μM (ABCG2/BCRP; Caco-2, pH 7.4, Papp R2, Caco-2, A-to-B, first FL118 entry (without Ko143)): 10.3 ×10⁻⁶ cm/s | recovery at 120 min, 1 µM (ABCG2/BCRP; Caco-2, A-to-B, first FL118 entry (without Ko143)): 57% | recovery at 120 min, 1 µM (ABCG2/BCRP; Caco-2, A-to-B, second FL118 entry (presumably with Ko143)): 57% | recovery at 120 min, 1 µM (ABCG2/BCRP; Caco-2, B-to-A, second FL118 entry (presumably with Ko143)): 66% | Kd (UbE2T): 160 nM
